# According to US7732178B2, “Laccase enzymes and their uses” (AB Enzymes Oy, priority 2004, dated 2010):
# B1: TaLcc1: Thielavia arenaria ALKO 4197 laccase, SEQ ID NO: 39, produced in Trichoderma reesei (protein)
# chain: MKSWAAAVALMVGILSPHAAAAPPANPVQRDMLQVLEARQSGPTCNTPSNRACWTNGFDINTDYEVSTPNTGRTVAYQLTLTEKENWIGPDGVLKNVVMLVNDKIIGPTIRANWGDNIEVTVINNLKTNGTSMHWHGLRQLGNVFNDGANGVTECPIPPKGGRKTYKFRATQYGTSWYHSHFSAQYGNGVVGTIQIDGPASLPYDIDLGVFPLMDYYYRSADELVHFTQSNGAPPSDNVLFNGTARHPETGAGQWYNVTLTPGKRHRLRIINTSTDNHFQVSLVGHNMTVIATDMVPVNAFTVSSLFLAVGQRYDVTIDANSPVGNYWFNVTFGDGLCGSSNNKFPAAIFRYQGAPATLPTDQGLPVPNHMCLDNLNLTPVVTRSAPVNNFVKRPSNTLGVTLDIGGTPLFVWKVNGSAINVDWGKPILDYVMSGNTSYPVSDNIVQVDAVDQWTYWLIENDPTNPIVSLPHPMHLHGHDFLVLGRSPDELPSAGVRHIFDPAKDLPRLKGNNPVRRDVTMLPAGGWLLLAFKTDNPGAWLFHCHIAWHVSGGLSVDFLERPNDLRTQLNSNAKRADRDDFNRVCREWNAYWPTNPFPKIDSGLRHRFVEESEWMVR
# modifications: Thielavia arenaria ALKO4197; (1)..(617) Deduced amino acid sequence of Thielavia arenaria ALKO4197 TaLcc1
# Key:
# [1] = system: Chaetomium thermophilum ALKO4265 laccase, purified wild type (CtL; CtLcc1); type: biochemical; details: pH 5
# [2] = target: T1, Thielavia arenaria ALKO4197 laccase TaLcc1, recombinant, SEQ ID NO: 39 (Canariomyces arenarius, UniProt F6N9E7); experiment: biochemical
# T1 construct: plasmid pALK1342 (DSM 15484)
# Procedure: (§1) The inhibition effect of different compounds on the activity of the laccases was determined as described in Example 2. except with Talcc4, with which the inhibition was analyzed using spectroscopic activity assay.
# [3] = system: Thielavia arenaria ALKO4197 laccase TaLcc4, recombinant, SEQ ID NO: 45; type: biochemical
# Procedure: as §1
# [4] = target: Thielavia arenaria ALKO4197 laccase, purified wild type (TaLcc; TaLcc1) (Canariomyces arenarius, UniProt F6N9E7); experiment: biochemical; details: pH 5
# TaLcc4 = type: biochemical, Thielavia arenaria; details: inhibitor 0.5 mM; spectrofotometric ABTS assay
# CtLcc1 = type: biochemical, Chaetomium thermophilum; details: inhibitor 0.5 mM
# Procedure: as §1
# TaLcc1 = type: biochemical, Thielavia arenaria; details: inhibitor 0.5 mM
# Procedure: as §1
# TaLcc2 = type: biochemical, Thielavia arenaria; details: inhibitor 0.5 mM
# Procedure: as §1
# [5] = system: wild type Chaetomium (CtL) laccase; type: biochemical, Chaetomium thermophilum; details: pH 5
# [6] = target: T2, Chaetomium thermophilum ALKO4265 laccase CtLcc1, recombinant, SEQ ID NO: 47 (Thermochaetoides thermophila, UniProt G0S3A5); type: biochemical
# T2 construct: plasmid pALK1304 (DSM 15075)
# Procedure: as §1
# [7] = target: T3, Thielavia arenaria ALKO4197 laccase TaLcc2, recombinant, SEQ ID NO: 41 (Canariomyces notabilis, UniProt A0AAN6TC87); type: biochemical
# T3 construct: plasmid pALK1347 (DSM 15486)
# Procedure: as §1
# [8] = Specific activity towards syringaldazine; type: biochemical; details: 25 mM MES buffer, pH 5.5
# Procedure: (§2) Specific activities of the purified T. arenaria and C. thermophilum laccases were determined towards different laccase substrates.
# [9] = Specific activity towards guaiacol; type: biochemical; details: 25 mM MES buffer, pH 5.5
# Procedure: as §2
# [10] = Isoelectric focusing (pI); type: physicochemical; details: pH range 3-9
# Procedure: Molecular weight of the T. arenaria and C. thermophilum laccases were determined on SDS-PAGE according to Laemmli (1970) The gels used in the SDS-PAGE analysis were ready-made 12% Tris HCl gels (BioRad). Protein bands were visualized by staining with Coomassie Brilliant Blue (R 350; Pharmacia) and compared with molecular weight markers (Prestained Protein Marker Broad Range #7708S; New England BioLabs, Beverly, Mass.). The molecular weight of the both laccases was approximately 80 kDa. The isoelectric point of the laccases was determined with isoelectric focusing within the pH range of 3-9 (Pharmalyte IEF, Pharmacia) on a LKB 2117 Multiphor II Electrophoresis System (LKB Pharmacia, Bromma, Sweden) according to the manufacturer's instructions.
# (§3) The purified recombinant Thielavia and Chaetomium laccases were characterized in terms of pH optimum, thermal stability, and pI as described in Example 2. The molecular weight was determined by MALDI-TOF mass spectrometry on a Ultraflex™ time-of-flight instrument (BrukerDaltonics, Germany) as previously described (Palonen et al., 2003). The redox-potentials of the T1 coppers of for CtLcc, and TaLcc2 laccases were determined by photometric copper titration in 0.1 M KH2PO4 (pH 6.0) as described by Xu et al. (1996) using the redox titrant couple K3Fe(CN)6/K4Fe(CN)6. The redox potential of TaLcc1 was determined with a combined Pt—AgCl/KCl microelectrode at pH 5.0 according to Sigoillot et al (2004). The characterization results are collected to Table 14.
# [11] = Specific activity towards di-methoxy-phenol (DMP); type: biochemical; details: 25 mM MES buffer, pH 5.5
# Procedure: as §2
# [12] = Stain removal, grass soiling; set-up: key to Grass L* / Grass a* / Grass b*: CIE L*a*b* color coordinates from reflectance; details: 60 min, 40° C., pH 6; enzyme 20 nkat/g + mediator 2 mg/g (Mediator only: 0 nkat/g)
# Procedure: (§4) Laccases CtLcc1, TaLcc2, TaLcc4 and Denilite II Base (Example 7) were tested for their ability to remove stains. The following artificially soiled test cloths were used: grass soiling (Art.164, EMPA Testmaterialen, Germany), tea soiling (Art. 167, EMPA Testmaterialen, Germany). The fabric was cut in 5.8×5.8 cm swatches. Laccase treatments were performed in LP-2 Launder Ometer as follows. About 5 g of soiled fabrics were loaded into 1.2 liter containers containing 150 ml Mc Ilvaine's citrate phosphate buffer pH 6 and the containers were temperated. Enzyme with or without the mediator (methyl syringate, DeniLite II Assist, Novozymes) was added as laccase activity units (Example 7). Enzyme was dosed 200 nkat/g and the mediator 10 mg/g on the weight of fabric, except at 40° C. dosages of 20 nkat/g and 2 mg/g were also used. The Launder Ometer was run at 40, 50 or 60° C. and pH 6 for 60 min. After that the swatches were carefully rinsed under running water and in shake flasks containing warm water and dried in the air.
# (§5) The stain removal effect was evaluated by measuring the colour as reflectance values using L*a*b* color space coordinates (Example 7). The colour of the swatches was measured before and after the laccase treatment.
# [13] = Redox potential, combined Pt-AgCl/KCl microelectrode; type: physicochemical; details: combined Pt-AgCl/KCl microelectrode at pH 5.0
# Procedure: as §3
# [14] = Stain removal, tea soiling; set-up: key to Tea L* / Tea a* / Tea b*: CIE L*a*b* color coordinates from reflectance; details: 60 min, 40° C., pH 6; enzyme 20 nkat/g + mediator 2 mg/g (Mediator only: 0 nkat/g)
# Procedure: as §4, §5
# [15] = Specific activity towards ABTS; type: biochemical; details: 25 mM succinate buffer pH 4.5, 25° C.
# Procedure: The activity assay was carried out in accordance with the method developed by Niku-Paavola et al. (1988). The sample was diluted with 0.025 M succinate buffer, pH 4.5. […] The activity is expressed as nano katals.
# as §2
# T3 sequence (A0AAN6TC87 entry or part of it): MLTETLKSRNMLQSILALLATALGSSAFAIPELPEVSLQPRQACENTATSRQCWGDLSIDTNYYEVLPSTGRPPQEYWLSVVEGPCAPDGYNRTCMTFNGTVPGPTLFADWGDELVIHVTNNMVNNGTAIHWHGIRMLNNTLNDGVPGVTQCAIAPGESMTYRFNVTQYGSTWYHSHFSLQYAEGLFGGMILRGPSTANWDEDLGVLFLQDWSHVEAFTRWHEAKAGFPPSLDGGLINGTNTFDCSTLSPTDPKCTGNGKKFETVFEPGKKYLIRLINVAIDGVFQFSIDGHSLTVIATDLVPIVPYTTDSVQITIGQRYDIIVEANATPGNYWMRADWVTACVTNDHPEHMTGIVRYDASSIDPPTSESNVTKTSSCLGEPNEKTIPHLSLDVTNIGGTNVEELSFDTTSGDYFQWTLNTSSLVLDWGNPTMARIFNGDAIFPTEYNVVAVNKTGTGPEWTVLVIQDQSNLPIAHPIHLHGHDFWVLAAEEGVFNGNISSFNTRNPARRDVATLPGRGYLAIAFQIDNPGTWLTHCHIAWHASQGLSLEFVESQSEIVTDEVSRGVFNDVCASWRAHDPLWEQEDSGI
# T2 sequence (G0S3A5 entry or part of it): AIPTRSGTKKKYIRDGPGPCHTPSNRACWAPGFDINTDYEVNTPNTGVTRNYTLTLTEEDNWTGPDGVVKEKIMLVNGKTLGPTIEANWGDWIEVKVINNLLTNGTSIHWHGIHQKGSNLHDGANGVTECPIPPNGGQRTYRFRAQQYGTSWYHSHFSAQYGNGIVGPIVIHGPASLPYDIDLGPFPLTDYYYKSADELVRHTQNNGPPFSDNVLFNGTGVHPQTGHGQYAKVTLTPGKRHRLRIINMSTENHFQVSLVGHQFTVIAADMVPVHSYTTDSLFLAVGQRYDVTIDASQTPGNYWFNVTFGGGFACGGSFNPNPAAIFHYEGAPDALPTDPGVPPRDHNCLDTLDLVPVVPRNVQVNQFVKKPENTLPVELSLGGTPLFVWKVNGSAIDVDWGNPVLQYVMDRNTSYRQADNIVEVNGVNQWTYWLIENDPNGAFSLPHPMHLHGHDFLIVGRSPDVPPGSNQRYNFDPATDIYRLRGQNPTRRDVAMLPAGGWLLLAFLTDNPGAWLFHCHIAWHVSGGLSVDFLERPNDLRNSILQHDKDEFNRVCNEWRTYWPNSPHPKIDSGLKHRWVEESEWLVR
molecule,measurement,setting,value
O=C(O)CN(CCN(CC(=O)O)CC(=O)O)CC(=O)O [EDTA],Inhibition (%),[1],0%
same,inhibition at 10000 µM,[2],5%
same,Inhibition (%),[3],2%
same,inhibition at 10000 µM,[4],0%
[N-]=[N+]=[N-].[Na+] [NaN3],Inhibition (%),[1],100%
same,Inhibition (%) TaLcc4,TaLcc4,95%
same,Inhibition (%) CtLcc1,CtLcc1,100%
same,Inhibition (%) TaLcc1,TaLcc1,95%
same,Inhibition (%) TaLcc2,TaLcc2,95%
same,Inhibition (%) CtL,[5],100%
same,Inhibition (%),[6],100%
same,Inhibition (%),[7],95%
same,Inhibition (%),[3],95%
B1,Specific activity on syringaldazin,[8],340 nkat/mg
same,Specific activity on guaiacol,[9],61 nkat/mg
same,pI,[10],5.5-6.9
same,Specific activity on DMP,[11],285 nkat/mg
same,Grass L*,[12],80.16
same,Grass a*,[12],−0.73
same,Grass b*,[12],16.20
same,E^0,[13],560 mV
same,Tea L*,[14],77.17
same,Tea a*,[14],4.65
same,Tea b*,[14],24.40
same,Specific activity on ABTS,[15],910 nkat/mg
